In publication PMC7941592 (Journal of natural products, 2021):
pEC50: −log10 of the molar value. Where a SMILES comes first, the peptide text is derived from it. [ ]: non-standard residue; d: D form. The star is where a group is joined. X1 = CC(C)C[C@@H](C[N+]1=C2CCCN2CCC1)N*; dIva = CC[C@@](C)(N)C(=O)O; Pip = O=C(O)[C@@H]1CCCCN1; Aib = CC(C)(N)C(=O)O; βAla = NCCC(=O)O

Experiments:
[1] = test system: multi-drug-resistant P. falciparum line Dd2; assay type: cell-based, Plasmodium falciparum
P. falciparum = conditions: read-out: EC50 against P. falciparum; cited from earlier work

SMILES | antiplasmodial activity in words [1] | pEC50 (P. falciparum)
CC[C@@](C)(NC(=O)[C@H](CC(C)C)NC(=O)[C@H](C)NC(=O)C(C)(C)NC(=O)[C@@H]1CCCCN1C(=O)C(C)(C)NC(=O)C(C)(C)NC(=O)CNC(=O)CCNC(=O)[C@H](CC(C)C)NC(=O)C(C)(C)NC(=O)C(C)(C)NC(=O)[C@@H]1CCCCN1C(=O)C(C)(C)NC(=O)[C@@H]1CCCCN1C(C)=O)C(=O)N[C@@H](CC(C)C)C[N+]1=C2CCCN2CCC1 [efrapeptin F (53), efrapeptin F] (Ac-[Pip][Aib][Pip][Aib][Aib]L[βAla]G[Aib][Aib][Pip][Aib]AL[dIva]-X1; N-terminus and C-terminus assumed) | submicromolar | –
CC[C@H](C)[C@@H](C(=O)O[C@@H](CC(C)C)C(=O)N[C@@H](CC(C)C)C(=O)N[C@@H](C)/C=C/C(=O)N1C(=O)C=C(OC)[C@@H]1C)N(C)C [Gallinamide A] | – | 5.08
